Data on 15 molecules can be found in US10259810B2, “N-sulfonylated pyrazolo[3,4-b]pyridin-6-carboxamides and method of use” (AbbVie S.à.r.l., priority 2015, dated 2019).

What all share (format): cell-based
Test [1] has as its target T1, ΔF508-CFTR (Homo sapiens, UniProt P13569, DEL508-508).
T1 construct: host or cells: CFBE41o-, doxycycline-inducible
Nature of the test: CFTR cell surface levels using HRP-tagged ΔF508-CFTR expressing CFBE cells, in the presence of a co-corrector. The conditions noted are these: HRP-tagged ΔF508-CFTR CFBE cells, in the presence of 3 μM co-corrector; for pEC50: read-out: EC50. Summed up: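 Chemiluminescent read-out of surface HRP (15 min, dark) after PBS washes. Activity is normalized as 100×(sample−DMSO)/(3 μM co-corrector alone−DMSO).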

Test [2] deals with T1, ΔF508-CFTR. The test is described as follows: CFTR cell surface levels using HRP-tagged ΔF508-CFTR expressing CFBE cells, intrinsic corrector capacity. The conditions noted are these: HRP-tagged ΔF508-CFTR expressing CFBE41o- cells, compound alone (intrinsic corrector capacity), 20 hours at 33° C.; for pEC50: read-out: EC50. Further details: % Activation: concentration or dose not given beside the values. The procedure, abridged:
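Surface ΔF508-CFTR was measured as HRP chemiluminescence from an extracellular-loop-4 tag, expressed as percent activity between DMSO and a […] corrector control.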

Another test concerns the target T2, CFTR ΔF508 (Homo sapiens, UniProt P13569, DEL508-508).
T2 construct: bronchial epithelial cells isolated from CF patients homozygous for the CFTR ΔF508 mutation; McGill University; Asterand; University of North Carolina hAEC-CF; host or cells: primary human bronchial epithelial cells from CF patients homozygous for ΔF508, differentiated at air-liquid interface
Nature of the test: Chronic TECC assay, primary bronchial epithelial cells of CF patients homozygous for CFTR ΔF508 (corrector, co-corrector and potentiator). The conditions noted are these: chronic TECC, AUC = full area under the curve upon forskolin stimulation; for % Activity at 1 μM (AUC**): test compound at 1 μM; for EC50: read-out: EC50 (nM) (AUC**). The procedure, abridged: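 Primary bronchial epithelial cells from ΔF508-homozygous CF patients on collagen IV-coated Transwells were chronically treated with test compound plus corrector and potentiator, which were re-added before recording. Ieq was derived from PD and Rt in NaCl-Ringer, pH 7.4, at 37° C, with apical amiloride and bilateral forskolin, recorded every 2 min over 20 min. Ieq increase was normalized to controls, and EC50 was taken from per-well concentrations.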

pEC50: −log10 of the molar value.

T2 sequence (P13569 with tags, fused parts or gaps DEL508-508): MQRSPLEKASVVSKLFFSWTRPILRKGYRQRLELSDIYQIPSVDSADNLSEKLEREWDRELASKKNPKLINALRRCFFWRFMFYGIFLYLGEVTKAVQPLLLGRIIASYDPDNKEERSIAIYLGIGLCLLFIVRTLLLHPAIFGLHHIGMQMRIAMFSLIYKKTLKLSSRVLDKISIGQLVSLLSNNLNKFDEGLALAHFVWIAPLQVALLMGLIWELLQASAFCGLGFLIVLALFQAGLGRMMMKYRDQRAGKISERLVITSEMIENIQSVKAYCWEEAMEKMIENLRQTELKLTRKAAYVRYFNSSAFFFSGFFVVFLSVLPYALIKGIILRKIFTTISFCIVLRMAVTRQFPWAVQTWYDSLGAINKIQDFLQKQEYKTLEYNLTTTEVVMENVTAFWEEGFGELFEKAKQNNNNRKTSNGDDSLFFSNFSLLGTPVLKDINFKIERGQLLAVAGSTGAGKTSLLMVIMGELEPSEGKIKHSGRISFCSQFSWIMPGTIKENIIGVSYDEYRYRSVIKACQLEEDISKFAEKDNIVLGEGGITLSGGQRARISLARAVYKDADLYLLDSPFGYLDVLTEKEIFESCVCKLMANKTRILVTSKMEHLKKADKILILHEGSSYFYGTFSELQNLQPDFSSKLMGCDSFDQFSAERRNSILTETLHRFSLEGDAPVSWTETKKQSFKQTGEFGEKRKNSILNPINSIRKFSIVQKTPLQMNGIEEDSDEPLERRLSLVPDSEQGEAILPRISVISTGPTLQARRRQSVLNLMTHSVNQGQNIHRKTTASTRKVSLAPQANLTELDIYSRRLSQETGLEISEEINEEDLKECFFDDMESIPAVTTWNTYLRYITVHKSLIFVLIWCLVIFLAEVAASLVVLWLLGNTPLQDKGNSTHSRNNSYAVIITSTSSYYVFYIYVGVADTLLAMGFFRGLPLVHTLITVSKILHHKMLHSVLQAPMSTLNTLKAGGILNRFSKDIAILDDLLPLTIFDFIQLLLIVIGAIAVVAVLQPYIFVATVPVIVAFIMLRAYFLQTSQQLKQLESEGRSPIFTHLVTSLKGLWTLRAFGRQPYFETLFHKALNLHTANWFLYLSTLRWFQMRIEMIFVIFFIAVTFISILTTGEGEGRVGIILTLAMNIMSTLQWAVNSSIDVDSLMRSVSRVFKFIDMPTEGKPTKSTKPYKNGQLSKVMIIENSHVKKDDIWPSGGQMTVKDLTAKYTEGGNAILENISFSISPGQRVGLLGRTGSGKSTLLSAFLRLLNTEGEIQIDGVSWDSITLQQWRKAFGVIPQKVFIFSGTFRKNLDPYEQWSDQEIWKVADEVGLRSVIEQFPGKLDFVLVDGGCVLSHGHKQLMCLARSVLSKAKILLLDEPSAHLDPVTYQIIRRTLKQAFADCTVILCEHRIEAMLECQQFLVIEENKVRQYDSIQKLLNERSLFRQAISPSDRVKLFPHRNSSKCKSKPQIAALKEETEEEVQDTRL
T1 sequence (P13569 with tags, fused parts or gaps DEL508-508): as above

One may read the pEC50 as the negative decadic logarithm of the EC50, by convention in mol/L. As for `CS(=O)(=O)NC(=O)c1cc(N2CCC(CCN3CCOCC3)CC2)c2c(C3CCC3)nn(-c3ccc(F)cc3)c2n1` [Compound 431, 3-cyclobutyl-1-(4-fluorophenyl)-N-(methanesulfonyl)-4-{4-[2-(morpholin-4-yl)ethyl]piperidin-1-yl}-1H-pyrazolo[3,4-b]pyridine-6-carboxamide], at ΔF508-CFTR [1], the “% Activation” value is recorded as 568.8% and the pEC50 is 7.33. Further, at ΔF508-CFTR [2], the “% Activation” value was determined as 344.95% and the pEC50 was 6.96. The “% Activity at 1 μM (AUC**)” value at CFTR ΔF508 stood at 280%.
In general, EC50 refers to the concentration giving half of the maximal effect. In the case of `CC(C1CCN(c2cc(C(=O)NS(=O)(=O)N(C)C)nc3c2c(C2CCC2)nn3-c2ccc(F)cc2)CC1)N1CCOCC1` (stereo not shown) [Compound 440, 3-cyclobutyl-N-(dimethylsulfamoyl)-1-(4-fluorophenyl)-4-{4-[1-(morpholin-4-yl)ethyl]piperidin-1-yl}-1H-pyrazolo[3,4-b]pyridine-6-carboxamide], at ΔF508-CFTR [1], the “% Activation” value is 543.55% and the pEC50 was 7.26. For the same molecule, at ΔF508-CFTR [2], the “% Activation” value came out at 334.8% and the negative logarithm of the EC50 (pEC50) is 6.89. At CFTR ΔF508, the EC50 was 2.98 nM and the “% Activity at 1 μM (AUC**)” value came out at 696.6667%.
In the case of `CC(C)Oc1nn(C2CCCCC2)c2nc(C(=O)NS(C)(=O)=O)cc(-c3ccc(CN4CCN(C)CC4)cc3)c12` [Compound 441, 1-cyclohexyl-N-(methanesulfonyl)-4-{4-[(4-methylpiperazin-1-yl)methyl]phenyl}-3-[(propan-2-yl)oxy]-1H-pyrazolo[3,4-b]pyridine-6-carboxamide], on ΔF508-CFTR [1], the “% Activation” value came out at 393.27% and the pEC50 was 6.71. Further, on ΔF508-CFTR [2], the “% Activation” value was determined as 196.1% and the negative logarithm of the EC50 (pEC50) is 6.46. On CFTR ΔF508, the EC50 was determined as 206 nM and the “% Activity at 1 μM (AUC**)” value came out at 236.6667%.
Take `CC(C1CCN(c2cc(C(=O)NS(C)(=O)=O)nc3c2c(C2CCC2)nn3-c2ccc(F)cc2)CC1)N1CCOCC1` (stereo not shown) [Compound 445, 3-cyclobutyl-1-(4-fluorophenyl)-N-(methanesulfonyl)-4-{4-[1-(morpholin-4-yl)ethyl]piperidin-1-yl}-1H-pyrazolo[3,4-b]pyridine-6-carboxamide]: on ΔF508-CFTR [1], the “% Activation” value is 671.25% and the pEC50 is 7.23. Besides, at ΔF508-CFTR [2], the “% Activation” value was determined as 393.1% and the negative-log EC50 (pEC50) is 6.96. For the same molecule, the “% Activity at 1 μM (AUC**)” value at CFTR ΔF508 is listed as 406.6667%.
The like results for `COCCS(=O)(=O)NC(=O)c1cc(N2CCC(CN3CCOCC3)CC2)c2c(C3CCC3)nn(-c3ccc(F)cc3)c2n1` [Compound 447, 3-cyclobutyl-1-(4-fluorophenyl)-N-(2-methoxyethanesulfonyl)-4-{4-[(morpholin-4-yl)methyl]piperidin-1-yl}-1H-pyrazolo[3,4-b]pyridine-6-carboxamide] were, in that order, 543.1%, 7.19, 330.9%, 6.61 and 330%.
With `O=C(NS(=O)(=O)CCO)c1cc(N2CCC(N3CCOCC3)CC2)c2c(C3CCC3)nn(-c3ccc(F)cc3)c2n1` [Compound 448, 3-cyclobutyl-1-(4-fluorophenyl)-N-(2-hydroxyethanesulfonyl)-4-[4-(morpholin-4-yl)piperidin-1-yl]-1H-pyrazolo[3,4-b]pyridine-6-carboxamide], on ΔF508-CFTR [1], the “% Activation” value is reported as 431.1% and the negative logarithm of the EC50 (pEC50) is 6.74. Also, at ΔF508-CFTR [2], the “% Activation” value was 258.2% and the pEC50 is 6.32. In addition, on CFTR ΔF508, the “% Activity at 1 μM (AUC**)” value is given as 116.8948%.
The like results for `CN(C)S(=O)(=O)NC(=O)c1cc(N2CCC(N3CCOCC3)CC2)c2c(C3CCC3)nn(-c3ccccc3)c2n1` [Compound 456, 3-cyclobutyl-N-(dimethylsulfamoyl)-4-[4-(morpholin-4-yl)piperidin-1-yl]-1-phenyl-1H-pyrazolo[3,4-b]pyridine-6-carboxamide] were, in that order, 457.7%, 7.03, 268.4%, 6.80 and 261.1621%.
Regarding `CN(C)S(=O)(=O)NC(=O)c1cc(N2CCN(c3ccncc3)CC2)c2c(C3CCC3)nn(C3CCCCC3)c2n1` [Compound 469, 3-cyclobutyl-1-cyclohexyl-N-(dimethylsulfamoyl)-4-[4-(pyridin-4-yl)piperazin-1-yl]-1H-pyrazolo[3,4-b]pyridine-6-carboxamide], on ΔF508-CFTR [1], the “% Activation” value was found to be 469.4% and the pEC50 was 6.90. For the same molecule, at ΔF508-CFTR [2], the “% Activation” value is given as 253.8% and the pEC50 was 6.69. On CFTR ΔF508, the EC50 stood at 108 nM and the “% Activity at 1 μM (AUC**)” value was 293.3333%.
For the molecule `CCS(=O)(=O)NC(=O)c1cc(N2CCN(c3ccncc3)CC2)c2c(C3CCC3)nn(C3CCCCC3)c2n1` [Compound 470, 3-cyclobutyl-1-cyclohexyl-N-(ethanesulfonyl)-4-[4-(pyridin-4-yl)piperazin-1-yl]-1H-pyrazolo[3,4-b]pyridine-6-carboxamide], at ΔF508-CFTR [1], the “% Activation” value is reported as 485.5% and the pEC50 was 6.94. On ΔF508-CFTR [2], the “% Activation” value was determined as 275.4% and the pEC50 is 6.64. For the same molecule, on CFTR ΔF508, the “% Activity at 1 μM (AUC**)” value turned out to be 210%.
The matching figures for `COCCN(C)S(=O)(=O)NC(=O)c1cc(N2CCC(N3CCOCC3)CC2)c2c(C3CCC3)nn(-c3ccc(F)cc3)c2n1` [Compound 471, 3-cyclobutyl-1-(4-fluorophenyl)-N-[(2-methoxyethyl)(methyl)sulfamoyl]-4-[4-(morpholin-4-yl)piperidin-1-yl]-1H-pyrazolo[3,4-b]pyridine-6-carboxamide]: 446.07%, 6.91, 240.2%, 6.64 and 296.6667%.
Consider `CN(C)S(=O)(=O)NC(=O)c1cc(N2CCC(N3CCCCC3)CC2)c2c(C3CCC3)nn(-c3ccc(F)cc3)c2n1` [Compound 472, 4-([1,4'-bipiperidin]-1'-yl)-3-cyclobutyl-N-(dimethylsulfamoyl)-1-(4-fluorophenyl)-1H-pyrazolo[3,4-b]pyridine-6-carboxamide], for which, on ΔF508-CFTR [1], the “% Activation” value was found to be 399.79% and the pEC50 was 6.60. For the same molecule, on ΔF508-CFTR [2], the “% Activation” value amounted to 210.57% and the pEC50 is 6.17. Besides, at CFTR ΔF508, the EC50 came out at 34.2 nM and the “% Activity at 1 μM (AUC**)” value is on record as 181.0865%.
Regarding `COCC1CCN(c2cc(C(=O)NS(C)(=O)=O)nc3c2c(C2CCC2)nn3-c2ccnc(C3CCOCC3)c2)CC1` [Compound 473, 3-cyclobutyl-N-(methanesulfonyl)-4-[4-(methoxymethyl)piperidin-1-yl]-1-[2-(oxan-4-yl)pyridin-4-yl]-1H-pyrazolo[3,4-b]pyridine-6-carboxamide], at ΔF508-CFTR [1], the “% Activation” value was determined as 370.7% and the pEC50 was 7.36. In addition, on ΔF508-CFTR [2], the “% Activation” value is 166.3% and the negative logarithm of the EC50 (pEC50) was 7.15. The “% Activity at 1 μM (AUC**)” value on CFTR ΔF508 turned out to be 243.3333%.
For `COc1cc(-n2nc(C3CCC3)c3c(N4CCC(N5CCOCC5)CC4)cc(C(=O)NS(C)(=O)=O)nc32)ccn1` [Compound 474, 3-cyclobutyl-N-(methanesulfonyl)-1-(2-methoxypyridin-4-yl)-4-[4-(morpholin-4-yl)piperidin-1-yl]-1H-pyrazolo[3,4-b]pyridine-6-carboxamide], on ΔF508-CFTR [1], the “% Activation” value was 390.2% and the negative logarithm of the EC50 (pEC50) is 6.28. For the same molecule, at ΔF508-CFTR [2], the “% Activation” value is 194.5% and the pEC50 is 6.24. Moreover, the “% Activity at 1 μM (AUC**)” value at CFTR ΔF508 is 226.6667%.
Turning to `C[C@@H](C1CCN(c2cc(C(=O)NS(=O)(=O)N(C)C)nc3c2c(C2CCC2)nn3-c2ccc(F)cc2)CC1)N1CCOCC1` [Compound 480, 3-cyclobutyl-N-(dimethylsulfamoyl)-1-(4-fluorophenyl)-4-{4-[(1S)-1-(morpholin-4-yl)ethyl]piperidin-1-yl}-1H-pyrazolo[3,4-b]pyridine-6-carboxamide], at ΔF508-CFTR [1], the “% Activation” value is given as 545.77% and the pEC50 was 7.06. Besides, at ΔF508-CFTR [2], the “% Activation” value stood at 322.45% and the pEC50 was 6.87. The “% Activity at 1 μM (AUC**)” value on CFTR ΔF508 is 548.575%.
`COC1CN(S(=O)(=O)NC(=O)c2cc(N3CCC(N4CCOCC4)CC3)c3c(C4CCC4)nn(-c4ccc(F)cc4)c3n2)C1` [Compound 484, 3-cyclobutyl-1-(4-fluorophenyl)-N-(3-methoxyazetidine-1-sulfonyl)-4-[4-(morpholin-4-yl)piperidin-1-yl]-1H-pyrazolo[3,4-b]pyridine-6-carboxamide]: on ΔF508-CFTR [1], the “% Activation” value was 485.6% and the pEC50 is 6.85. Further, at ΔF508-CFTR [2], the “% Activation” value worked out at 216.9% and the pEC50 is 6.91. For the same molecule, the “% Activity at 1 μM (AUC**)” value on CFTR ΔF508 amounted to 380%.
